Assay results: patent US20260232767A1, “INTERLEUKIN-23 RECEPTOR ANTAGONIST PEPTIDES FOR USE IN THE TREATMENT OF PSORIASIS” (Janssen Pharmaceutica NV, priority 2023, published 2026)

Tested on: subjects with moderate-to-severe plaque psoriasis
Test: Hematology and chemistry laboratory values by CTCAE grade
Assay type: in vivo, human
Conditions: 25 mg BID; through Week 56
Excerpt: The proportion of participants who discontinued study intervention due to one or more AEs was low (n=4). All events were singular in nature with no apparent dose-dependent increase (Table 48 and Table 52). The number of participants with abnormal hematology and chemistry laboratory values with CTCAE toxicity grade≥3 were low through the end of the study (Table 43 through Table 46). There was no apparent dose-dependent increase in laboratory abnormality occurrences.

CC(=O)NCCCC[C@@H]1NC(=O)[C@H](Cc2c[nH]c3c(C)cccc23)NC(=O)[C@H]([C@@H](C)O)NC(=O)[C@H](CC(N)=O)NC(=O)[C@@H](NC(C)=O)C(C)(C)SSC(C)(C)[C@@H](C(=O)N[C@@H](Cc2ccc(OCCN)cc2)C(=O)N[C@@H](Cc2ccc3ccccc3c2)C(=O)NC2(C(=O)N[C@@H](CCC(=O)O)C(=O)N[C@@H](CC(N)=O)C(=O)N[C@@H](Cc3cccnc3)C(=O)N(C)CC(N)=O)CCOCC2)NC1=O [IL-23 receptor antagonist peptide, Ac-[Pen]*-N-T-[W(7-Me)]-[Lys(Ac)]-[Pen]*-Phe[4-(2-aminoethoxy)]-[2-Nal]-[THP]-E-N-[3-Pal]-Sarc-NH2 (*[Pen]-[Pen]* formdisulfidebond)]
0: Alanine Aminotransferase (increased): Subjects with Grade 3 | Alanine Aminotransferase (increased): Subjects with Grade 4 | Albumin (decreased): Subjects with Grade 1 | Albumin (decreased): Subjects with Grade 2 | Albumin (decreased): Subjects with Grade 3 | Albumin (decreased): Subjects with Grade 4 | Albumin (decreased): Subjects with postbaseline maximum toxicity grade >0 | Alkaline Phosphatase (increased): Subjects with Grade 2 | Alkaline Phosphatase (increased): Subjects with Grade 3 | Alkaline Phosphatase (increased): Subjects with Grade 4 | Aspartate Aminotransferase (increased): Subjects with Grade 3 | Aspartate Aminotransferase (increased): Subjects with Grade 4 | Calcium corrected (decreased): Subjects with Grade 2 | Calcium corrected (decreased): Subjects with Grade 3 | Calcium corrected (decreased): Subjects with Grade 4 | Calcium corrected (increased): Subjects with Grade 1 | Calcium corrected (increased): Subjects with Grade 2 | Calcium corrected (increased): Subjects with Grade 3 | Calcium corrected (increased): Subjects with Grade 4 | Calcium corrected (increased): Subjects with postbaseline maximum toxicity grade >0 | Cholesterol (increased): Subjects with Grade 2 | Cholesterol (increased): Subjects with Grade 3 | Cholesterol (increased): Subjects with Grade 4 | Creatinine (increased): Subjects with Grade 1 | Creatinine (increased): Subjects with Grade 2 | Creatinine (increased): Subjects with Grade 3 | Creatinine (increased): Subjects with Grade 4 | Creatinine (increased): Subjects with postbaseline maximum toxicity grade >0 | Gamma Glutamyl Transferase (increased): Subjects with Grade 2 | Gamma Glutamyl Transferase (increased): Subjects with Grade 3 | Gamma Glutamyl Transferase (increased): Subjects with Grade 4 | Glucose (decreased): Subjects with Grade 2 | Glucose (decreased): Subjects with Grade 3 | Glucose (decreased): Subjects with Grade 4 | Hemoglobin (g/L) (decreased): subjects with Grade 1 | Hemoglobin (g/L) (decreased): subjects with Grade 2 | Hemoglobin (g/L) (decreased): subjects with Grade 3 | Hemoglobin (g/L) (decreased): subjects with Grade 4 | Hemoglobin (g/L) (decreased): subjects with postbaseline maximum toxicity grade >0 | Hemoglobin (g/L) (increased): subjects with Grade 2 | Hemoglobin (g/L) (increased): subjects with Grade 3 | Hemoglobin (g/L) (increased): subjects with Grade 4 | Lymphocytes (×10^9/L) (decreased): subjects with Grade 3 | Lymphocytes (×10^9/L) (decreased): subjects with Grade 4 | Lymphocytes (×10^9/L) (increased): subjects with Grade 1 | Lymphocytes (×10^9/L) (increased): subjects with Grade 3 | Lymphocytes (×10^9/L) (increased): subjects with Grade 4 | Magnesium (decreased): Subjects with Grade 1 | Magnesium (decreased): Subjects with Grade 2 | Magnesium (decreased): Subjects with Grade 3 | Magnesium (decreased): Subjects with Grade 4 | Magnesium (decreased): Subjects with postbaseline maximum toxicity grade >0 | Magnesium (increased): Subjects with Grade 2 | Magnesium (increased): Subjects with Grade 3 | Magnesium (increased): Subjects with Grade 4 | Neutrophils (×10^9/L) (decreased): subjects with Grade 3 | Neutrophils (×10^9/L) (decreased): subjects with Grade 4 | Platelets (×10^9/L) (decreased): subjects with Grade 2 | Platelets (×10^9/L) (decreased): subjects with Grade 3 | Platelets (×10^9/L) (decreased): subjects with Grade 4 | Potassium (decreased): Subjects with Grade 1 | Potassium (decreased): Subjects with Grade 2 | Potassium (decreased): Subjects with Grade 3 | Potassium (decreased): Subjects with Grade 4 | Potassium (decreased): Subjects with postbaseline maximum toxicity grade >0 | Potassium (increased): Subjects with Grade 2 | Potassium (increased): Subjects with Grade 3 | Potassium (increased): Subjects with Grade 4 | Sodium (decreased): Subjects with Grade 1 | Sodium (decreased): Subjects with Grade 2 | Sodium (decreased): Subjects with Grade 3 | Sodium (decreased): Subjects with Grade 4 | Sodium (decreased): Subjects with postbaseline maximum toxicity grade >0 | Sodium (increased): Subjects with Grade 2 | Sodium (increased): Subjects with Grade 3
